Earlier results in patent US7235556B2, “Methods of treating dry eye disorders” (Alcon, Inc., priority 2003, dated 2007).

Tested on: allergic dermal inflammation
Conditions: guinea pig model of eczema; reported in the background section

CC(C)(C(=O)O)c1cn2nc(NCCCN3CCC(OC(c4ccccc4)c4ccccc4)CC3)ccc2n1.O.O [TAK-427, 2-[6-[[3-[4-(diphenylmethoxy)piperidino]propyl]amino]imidazo[1,2-b]pyridazin-2-yl]2-methylpropionic acid dihydrate]
inhibition of allergic dermal inflammation: inhibit allergic dermal inflammation
